Experimental findings from patent publication US7691855B2, “Phenyl-[4-(3-phenyl-1h-pyrazol-4-yl)-pyrimidin-2-yl)-amine derivatives” (Novartis AG, priority 2002, dated 2010) are described below.

Structures are written as SMILES.

The target in data set [1] is ErbB-2 (HER-2) (Homo sapiens, UniProt P04626). Briefly: Inhibition of ErbB-2 (HER-2) tyrosine kinase activity. Type of data set: biochemical. How it is done:
The inhibitory activity (IC50) is approximately in the range of 0.001 to 0.5 μM. The inhibition of ErbB2 tyrosine kinase (HER-2) can be determined, for example, analogously to the method used for EGF-R protein tyrosine kinase [see C. House et al., Europ. J. Biochem. 140. 363-367 (1984)]. The ErbB-2 kinase can be isolated, and its activity determined, by means of protocols known per se, for example in accordance with T. Akiyama et al., Science 232 1644 (1986).
(§1) Inhibition of the tyrosine kinase Activity of EGF-R (HER-1), ErbB-2 (HER-2) and VEGF Receptor (KDR)
(§2) The inhibition tests are carried out as described above.

The target of data set [2] is T1, EGF-R (HER-1) (Homo sapiens, UniProt P00533).
T1 construct: using the recombinant intracellular domain of the EGF-receptor [EGF-R ICD
T1 sequence (P00533 669-1210 limits assumed): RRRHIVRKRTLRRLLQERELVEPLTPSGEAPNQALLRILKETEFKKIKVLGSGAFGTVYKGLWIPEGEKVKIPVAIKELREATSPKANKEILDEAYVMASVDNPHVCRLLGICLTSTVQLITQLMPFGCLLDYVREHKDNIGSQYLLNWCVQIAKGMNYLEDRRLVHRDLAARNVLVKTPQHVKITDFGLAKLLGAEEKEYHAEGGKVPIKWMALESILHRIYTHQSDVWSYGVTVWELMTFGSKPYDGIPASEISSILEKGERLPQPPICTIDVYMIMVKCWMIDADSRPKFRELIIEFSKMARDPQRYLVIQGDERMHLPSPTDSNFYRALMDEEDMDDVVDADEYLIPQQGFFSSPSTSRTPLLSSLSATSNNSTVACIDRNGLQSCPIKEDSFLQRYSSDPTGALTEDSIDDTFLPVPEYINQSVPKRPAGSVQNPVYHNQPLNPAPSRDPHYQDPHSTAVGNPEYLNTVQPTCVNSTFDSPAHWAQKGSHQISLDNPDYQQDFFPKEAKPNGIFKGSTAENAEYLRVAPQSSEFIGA
Briefly: Inhibition of EGF-R (HER-1) tyrosine kinase activity. The following applies: recombinant intracellular domain of the EGF-receptor. Type of data set: biochemical. As for the experimental part:
J. Biochem. 207, 265-275 (1992)]. Compared with the control without inhibitor, the compounds of formula I inhibit the enzyme activity by 50% (IC50), for example in a concentration of from 0.0005 to 0.5 μM, especially from 0.001 to 0.1 μM.
as §1, §2

The target in data set [3] is T2, VEGF Receptor (KDR) (Homo sapiens, UniProt P35968).
T2 construct: as in the cited Wood et al. 2000 method
T2 sequence (P35968 834-1162 limits assumed): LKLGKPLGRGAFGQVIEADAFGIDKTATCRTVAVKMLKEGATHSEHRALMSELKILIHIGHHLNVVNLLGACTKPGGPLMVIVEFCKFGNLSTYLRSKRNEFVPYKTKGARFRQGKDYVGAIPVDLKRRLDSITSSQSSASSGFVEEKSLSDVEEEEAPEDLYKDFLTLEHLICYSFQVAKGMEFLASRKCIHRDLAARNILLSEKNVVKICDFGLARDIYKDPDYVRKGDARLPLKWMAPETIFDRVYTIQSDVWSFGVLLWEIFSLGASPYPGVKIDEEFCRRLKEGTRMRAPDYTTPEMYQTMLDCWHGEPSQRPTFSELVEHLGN
The data set can be described thus: Inhibition of VEGF receptor (KDR) tyrosine kinase activity. The class given is biochemical. As for the experimental part: The compounds of the present invention are therefore very effective dual inhibitors of EGF- and VEGF-receptor family members. For inhibition of KDR and Flt-1 and inhibition of growth factor-induced proliferation of HUVECS see J. Wood et al., Cancer Res. 60, 2178-2189 (2000). The compounds of formula I inhibit e.g. the KDR tyrosine kinase activity with an IC50 of from about 1 nM to about 1 μM, especially from about 5 nM to about 0.5 μM.
as §1, §2

Sequence of ErbB-2 (HER-2) (P04626 23-1255): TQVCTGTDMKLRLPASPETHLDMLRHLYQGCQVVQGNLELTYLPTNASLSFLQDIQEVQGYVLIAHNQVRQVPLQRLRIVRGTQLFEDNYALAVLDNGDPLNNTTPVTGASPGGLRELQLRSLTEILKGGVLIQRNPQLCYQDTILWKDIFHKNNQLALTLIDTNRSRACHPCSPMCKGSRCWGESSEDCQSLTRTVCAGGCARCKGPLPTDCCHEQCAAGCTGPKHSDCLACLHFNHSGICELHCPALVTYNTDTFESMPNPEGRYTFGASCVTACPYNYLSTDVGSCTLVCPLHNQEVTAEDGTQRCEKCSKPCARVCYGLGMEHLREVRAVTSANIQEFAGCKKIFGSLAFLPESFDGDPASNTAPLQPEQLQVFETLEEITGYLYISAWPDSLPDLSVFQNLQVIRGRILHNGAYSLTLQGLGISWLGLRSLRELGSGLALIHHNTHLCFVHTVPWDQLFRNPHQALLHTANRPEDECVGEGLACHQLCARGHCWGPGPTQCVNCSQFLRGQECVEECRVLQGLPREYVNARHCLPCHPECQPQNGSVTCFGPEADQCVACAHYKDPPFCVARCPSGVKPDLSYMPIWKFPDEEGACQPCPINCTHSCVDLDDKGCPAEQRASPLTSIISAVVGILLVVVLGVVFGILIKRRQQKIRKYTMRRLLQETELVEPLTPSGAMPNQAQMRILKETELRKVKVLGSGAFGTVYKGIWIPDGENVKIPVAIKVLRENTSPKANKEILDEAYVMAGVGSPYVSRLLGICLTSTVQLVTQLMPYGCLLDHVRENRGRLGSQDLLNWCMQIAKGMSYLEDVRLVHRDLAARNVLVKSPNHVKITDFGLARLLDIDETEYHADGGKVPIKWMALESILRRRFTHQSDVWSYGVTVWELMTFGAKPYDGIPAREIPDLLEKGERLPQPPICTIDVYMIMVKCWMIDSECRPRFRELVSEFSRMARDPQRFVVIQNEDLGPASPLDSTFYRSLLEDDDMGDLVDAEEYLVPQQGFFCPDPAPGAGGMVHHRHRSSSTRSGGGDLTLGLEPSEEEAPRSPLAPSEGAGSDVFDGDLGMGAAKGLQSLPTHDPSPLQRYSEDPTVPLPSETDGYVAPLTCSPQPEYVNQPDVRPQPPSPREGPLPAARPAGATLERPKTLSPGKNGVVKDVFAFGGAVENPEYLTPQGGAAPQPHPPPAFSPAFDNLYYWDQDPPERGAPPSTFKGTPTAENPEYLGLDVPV

Regarding `CCN1CCN(Cc2ccc(Nc3nccc(-c4c[nH]nc4-c4ccc(C)cc4)n3)cc2)CC1` [Example 101, [4-(4-Ethyl-piperazin-1-ylmethyl)-phenyl]-[4-(3-p-tolyl-1H-pyrazol-4)-pyrimidin-2-yl]-amine], the figures for the IC50 in data set [1], in data set [2] and in data set [3] were 28 nM, 13 nM and 4 nM, respectively.
`CN1CCN(c2ccc(Nc3nccc(-c4c[nH]nc4-c4ccc(Cl)cc4)n3)cc2)CC1` [Example 1, {4-[3-(4-Chloro-phenyl)1H-pyrazol-4yl]-pyrimidin-2-yl}-[4-(4-methyl-piperazin-1-yl)-phenyl]-amine]: the melting point (as a rule, the temperature, or range, at which the solid turns liquid) lay within 282 to 284 °C. Besides, the IC50 (usually the concentration at which inhibition is half-maximal) in data set [1] stood at 23 nM. Further, the IC50 in data set [2] was found to be 18 nM. In addition, the IC50 in data set [3] amounted to 10 nM.
As to `CN(C)CCOc1ccc(Nc2nccc(-c3c[nH]nc3-c3ccc(Cl)c(Cl)c3)n2)cc1` [Example 21, {4-[3-(3,4-Dichloro-phenyl)-1H-pyrazol-4-yl]-pyrimidin-2-yl}-[4-(2-dimethylamino-ethoxy)-phenyl]-amine], the IC50 came to 16 nM in data set [1], 29 nM in data set [2] and 15 nM in data set [3].
The compound `Cc1ccc(-c2n[nH]cc2-c2ccnc(Nc3ccc(CN4CCN(C)CC4)cc3)n2)cc1` [Example 60, [4-(4-Methyl-piperazin-1-ylmethyl)-phenyl]-[4-(3-p-tolyl-1H-pyrazol-4-yl)-pyrimidin-2-yl]-amine] registered a melting point of 250 °C. In data set [1], the IC50 was determined as 44 nM. In addition, in data set [2], the IC50 amounted to 20 nM. Also, in data set [3], the IC50 amounted to 10 nM.
Take `CN(C)CCOc1ccc(Nc2nccc(-c3c[nH]nc3-c3ccc(Cl)cc3)n2)cc1` [Example 2, {4-[3-(4-Chloro-phenyl)-1H-pyrazol-4-yl]-pyrimidin-2-yl}-[4-(2-dimethyl-amino-ethoxy)-phenyl]-amine]: the IC50 turned out to be 19 nM in data set [1], 22 nM in data set [2] and 21 nM in data set [3].
In turn, `CCN1CCN(c2ccc(Nc3nccc(-c4c[nH]nc4-c4ccc(C)cc4)n3)cc2)CC1` [Example 109, [4-(4-Ethyl-piperazin-1-yl)-phenyl]-[4-(3-p-tolyl-1H-pyrazol-4yl)-pyrimidin-2-yl]-amine] returned a melting point of 280 °C. The IC50 in data set [1] was 34 nM. In data set [2], the IC50 was found to be 16 nM. In data set [3], this compound yielded an IC50 of 3 nM.
On to `Cc1cccc(-c2n[nH]cc2-c2ccnc(Nc3ccc(N4CCN(C)CC4)cc3)n2)c1` [Example 18, [4-(4-Methyl-piperazin-1yl)-phenyl]-[4-(3-m-tolyl-1H-pyrazol-4-yl)-pyrimidin-2-yl]-amine], for which the IC50 in data set [1] is 13 nM; in data set [2], 21 nM; in data set [3], 4 nM.
`Clc1ccc(-c2n[nH]cc2-c2ccnc(Nc3ccc(-c4nnn[nH]4)cc3)n2)cc1` [Example 116, {4-[3-(4-Chloro-phenyl)-1H-pyrazol-4-yl]-pyrimidin-2-yl}-[4-(1H-tetrazol-5-yl)-phenyl]-amine] yielded a melting point of 369 °C. In addition, in data set [1], the IC50 is below 10 nM. Moreover, in data set [2], the IC50 stood at 9 nM. In addition, in data set [3], half-maximal inhibition (IC50) was put at 21 nM.
Regarding `COc1cc(Nc2nccc(-c3c[nH]nc3-c3ccc4c(c3)OCO4)n2)cc(OC)c1OC` [Example 46, [4-(3-Benzo[1,3]dioxol-5-yl-1H-pyrazol-4-yl)-pyrimidin-2-yl]-(3,4,5-trimethoxy-phenyl)-amine], the IC50 in data set [1] is 6 nM; in data set [2], 28 nM; in data set [3], 3 nM.
Turning to `CN1CCN(Cc2ccc(Nc3nccc(-c4cnn(C)c4-c4ccc(Cl)cc4)n3)cc2)CC1` [Example 79, {4-[5-(4Chloro-phenyl)-1-methyl-1H-pyrazol-4-yl]-pyrimidin-2-yl}-[4-(4-methyl-piperazin-1-ylmethyl)-phenyl]-amine], the melting point was found to be 186 °C.
The compound `CCN1CCN(Cc2ccc(Nc3nccc(-c4cnn(C)c4-c4ccc(C)cc4)n3)cc2)CC1` [Example 118, [4-(4-Ethyl-piperazin-1-ylmethyl)-phenyl]-[4-(1-methyl-5-p-tolyl-1H-pyrazol-4-yl)-pyrimidin-2-yl]-amine] had a melting point of 82 °C.
As to `Cc1ccc(-c2n[nH]cc2-c2ccnc(Nc3ccc(C(=O)N4CCN(C)CC4)cc3)n2)cc1` [Example 59, (4Methyl-piperazin-1-yl)-{4-[4-(3-p-tolyl-1H-pyrazol-4-yl)-pyrimidin-2-ylamino]-phenyl}-methanone], the melting point was found to be 264 °C.
`COc1ccc(Nc2nccc(-c3c[nH]nc3-c3ccc(Cl)cc3)n2)cc1OC` [Example 68, {4-[3-(4-Chloro-phenyl)-1H-pyrazol-4yl]-pyrimidin-2-yl}-(3,4-dimethoxy-phenyl)-amine] had a melting point of 261 °C.
Consider `Cc1cccc(-c2n[nH]cc2-c2ccnc(Nc3ccc(N4CCN(C)CC4)cc3)n2)c1C` [Example 50, {4-[3-(2,3-Dimethyl-phenyl)-1H-pyrazol-4-yl]-pyrimidin-2-yl}-[4-(4-methyl-piperazin-1-yl)phenyl]-amine], for which the melting point turned out to be 305 °C.
As to `Cc1cccc(-c2n[nH]cc2-c2ccnc(Nc3ccc(OCCN(C)C)cc3)n2)c1` [Example 20, [4-(2-Dimethylamino-ethoxy)-phenyl]-[4-(3-m-tolyl-1H-pyrazol-4-yl)-pyrimidin-2-yl]-amine], the results for the IC50 in data set [1], in data set [2] and in data set [3] were 15 nM, 27 nM and 6 nM, respectively.
`Cc1ccc(-c2n[nH]cc2-c2ccnc(Nc3cccc(OCC4CCN(C)CC4)c3)n2)cc1` [Example 124, [3-(1-Methyl-piperidin-4-ylmethoxy)-phenyl]-[4-(3-p-tolyl-1H-pyrazol-4yl)-pyrimidin-2-yl]-amine]: the IC50 was 17 nM in data set [1], 3 nM in data set [2] and 5 nM in data set [3].
`CN1CCC(n2ncc(-c3ccnc(Nc4ccc(CN5CCN(C)CC5)cc4)n3)c2-c2ccc(Cl)cc2)CC1` [Example 81, {4-[5-(4-Chloro-phenyl)-1-(1-methyl-piperidin-4yl)-1H-pyrazol-4yl]-pyrimidin-2-yl}-[4-(4methyl-piperazin-1-ylmethyl)-phenyl]-amine] returned a melting point of 180 °C.
As for `CN1CCN(c2ccc(Nc3nccc(-c4cn(C)nc4-c4ccc(Cl)cc4)n3)cc2)CC1` [Example 91, {4-[3-(4-Chloro-phenyl)1-methyl-1H-pyrazol-4yl]-pyrimidin-2-yl}-[4-(4-methyl-piperazin-1-yl)-phenyl]-amine], the IC50 in data set [1] was 42 nM; in data set [2], 18 nM; in data set [3], 28 nM.
As to `Cc1ccc(-c2nn(C)cc2-c2ccnc(Nc3ccc(N4CCN(C)CC4)cc3)n2)cc1` [Example 64, [4-(4-Methyl-piperazin-1-yl)-phenyl]-[4-(1-methyl-3-p-tolyl-1H-pyrazol-4-yl)-pyrimidin-2-yl]-amine], the melting point was 203 °C.
For the compound `Cc1ccc(-c2nn(CCN(C)C)cc2-c2ccnc(Nc3ccc(N4CCN(C)CC4)cc3)n2)cc1` [Example 55, {4-[1-(2-Dimethylamino-ethyl)-3-p-tolyl-1H-pyrazol-4-yl]-pyrimidin-2-yl}-[4-(4-methyl-piperazin-1-yl)-phenyl]-amine], the melting point worked out at 174 °C.
Regarding `CCN1CCN(Cc2ccc(Nc3nccc(-c4cn(C)nc4-c4ccc(C)cc4)n3)cc2)CC1` [Example 117, [4-(4-Ethyl-piperazin-1-ylmethyl)-phenyl]-[4-(1-methyl-3-p-tolyl-1H-pyrazol-4-yl)-pyrimidin-2-yl]-amine], the melting point came out at 88 °C.
Compound `COc1cccc(Nc2nccc(-c3cn(CC4CCN(C)CC4)nc3-c3ccc(Cl)cc3)n2)c1` [Example 107, {4-[3-(4-Chloro-phenyl)-1-(1methyl-piperidin-4-ylmethyl)-1H-pyrazol-4-yl]-pyrimidin-2-yl}-(3-methoxy-phenyl)-amine] returned a melting point of 65 °C.
